{
  "source": "patent US9259411B2",
  "about": "“Neuronal circuit-dependent neuroprotection by interaction between nicotinic receptors” (priority 2006, dated 2016)",
  "key": {"[1]": {"target": "NMDA receptors", "conditions": "against the NMDA receptors; cited from earlier work"}, "[2]": {"system": "CA1 neurons of hippocampal slices", "assay": "Neuroprotection against NMDA excitotoxicity: recovery of population spikes in acute hippocampal slices", "format": "cell-based, rat", "conditions": "for effect of nifedipine on the neuroprotection: 10 μM nifedipine; for effect of PD98059 on the neuroprotection: 50 μM PD98059; for Effect on the neuroprotection caused by the substance: 10 μM PD98059: main target ERK-1,2 kinase", "experimental": "Male Sprague-Dawley rats (120-200 g) were maintained and sacrificed according to standard procedures reviewed and approved by the Institutional Animal Care and Use Committee. […] Briefly, hippocampi were dissected over ice; transversal 400-μm-thick slices were cut with a manual slicer and immediately transferred to the incubation chamber, thus preserving the neurons in their native environment. The chamber consisted of a temperature-controlled bath surrounding an acrylic plate covered with nylon mesh; the plate was divided into three lanes with independent perfusion. […] C. A bipolar electrode placed in the stratum radiatum was used to stimulate the Shaffer collateral incoming fibers with a constant current for 0.2 msec. The resulting population spike (PS) was recorded in stratum pyramidale with a glass electrode filled with 2 M NaCl, having an impedance of 1-5 M.OMEGA.\nAbout 30 slices from the hippocampi of two rats were distributed equally among three lanes of an incubation chamber. A maximum of seven slices were analyzed per lane for each individual experiment, and on average 21 slices per condition were tested for each experimental condition. […] Because the neurons are maintained in their native environment and in contact with other cells, stimulation with the appropriate stimulus can elicit a PS. One hour after dissection, each slice was stimulated with a stimulus twice the strength required to elicit a threshold PS. This initial response was recorded as PS area (msec×mV) and compared to the final response elicited by the same stimulus strength recorded from the same position after the experimental treatment was finished. The slices were washed for 1 hr with normal ACSF to eliminate lingering drugs and any short-lived effects. […] The percentage of the initial response remaining at the end of the experiment was used as a measure of electrophysiological recovery.\nThe areas of PSs (mV/msec) were acquired and analyzed with the Labman program. The data were statistically analyzed with SigmaStat v2.03 (SPSS, Chicago, Ill.). One-way analysis of variance (ANOVA) was used whenever the data were distributed normally. […] In these cases, the less powerful nonparametric Kruskal-Wallis one-way ANOVA on ranks was used. The post-hoc test used was the Student-Newman-Keuls test for normally distributed data and Dunn's test for data that was not normally distributed."}, "[3]": {"target": "α7 nAChRs (Rattus norvegicus, UniProt Q05941)", "sequence (Q05941 23-502)": "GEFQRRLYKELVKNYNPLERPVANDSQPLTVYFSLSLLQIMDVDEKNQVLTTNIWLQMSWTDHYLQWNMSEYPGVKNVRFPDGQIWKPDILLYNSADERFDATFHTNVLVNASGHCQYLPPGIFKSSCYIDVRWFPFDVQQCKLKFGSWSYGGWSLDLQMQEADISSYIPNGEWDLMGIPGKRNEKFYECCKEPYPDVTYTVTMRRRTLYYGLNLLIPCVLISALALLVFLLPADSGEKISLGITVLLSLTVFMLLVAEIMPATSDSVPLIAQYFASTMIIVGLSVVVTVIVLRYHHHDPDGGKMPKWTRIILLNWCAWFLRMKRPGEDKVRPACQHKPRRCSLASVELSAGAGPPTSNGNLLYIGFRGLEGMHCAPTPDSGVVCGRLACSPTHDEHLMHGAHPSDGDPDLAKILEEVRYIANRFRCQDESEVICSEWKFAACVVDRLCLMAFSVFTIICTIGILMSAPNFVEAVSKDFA", "conditions": "against the α7 nAChRs; cited from earlier work"}, "[4]": {"system": "CA1 neurons of hippocampal slices", "conditions": "cited from earlier work; for effect of DHβE on the neuroprotection (reported): 1 μM DHβE, 10 nM MLA"}, "[5]": {"target": "α4β2 nAChRs (Homo sapiens, UniProt P17787+P43681)", "sequence (P43681 29-627 limits assumed)": "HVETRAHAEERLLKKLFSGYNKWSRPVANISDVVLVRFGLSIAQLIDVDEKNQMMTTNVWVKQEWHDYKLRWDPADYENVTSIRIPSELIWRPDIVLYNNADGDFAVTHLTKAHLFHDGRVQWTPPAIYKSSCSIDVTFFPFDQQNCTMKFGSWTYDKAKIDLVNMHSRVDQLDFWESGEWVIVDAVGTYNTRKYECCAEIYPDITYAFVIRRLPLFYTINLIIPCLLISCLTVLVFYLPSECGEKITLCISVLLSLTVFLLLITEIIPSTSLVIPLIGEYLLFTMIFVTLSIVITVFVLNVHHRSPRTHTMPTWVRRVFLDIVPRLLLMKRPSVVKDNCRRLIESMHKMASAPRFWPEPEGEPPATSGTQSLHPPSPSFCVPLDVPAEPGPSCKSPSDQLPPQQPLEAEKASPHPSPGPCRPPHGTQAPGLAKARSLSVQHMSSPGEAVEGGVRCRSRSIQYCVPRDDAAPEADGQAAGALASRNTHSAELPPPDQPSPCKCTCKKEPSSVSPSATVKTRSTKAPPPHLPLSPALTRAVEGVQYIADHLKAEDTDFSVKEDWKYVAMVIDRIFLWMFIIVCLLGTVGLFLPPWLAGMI", "sequence (P17787 26-502)": "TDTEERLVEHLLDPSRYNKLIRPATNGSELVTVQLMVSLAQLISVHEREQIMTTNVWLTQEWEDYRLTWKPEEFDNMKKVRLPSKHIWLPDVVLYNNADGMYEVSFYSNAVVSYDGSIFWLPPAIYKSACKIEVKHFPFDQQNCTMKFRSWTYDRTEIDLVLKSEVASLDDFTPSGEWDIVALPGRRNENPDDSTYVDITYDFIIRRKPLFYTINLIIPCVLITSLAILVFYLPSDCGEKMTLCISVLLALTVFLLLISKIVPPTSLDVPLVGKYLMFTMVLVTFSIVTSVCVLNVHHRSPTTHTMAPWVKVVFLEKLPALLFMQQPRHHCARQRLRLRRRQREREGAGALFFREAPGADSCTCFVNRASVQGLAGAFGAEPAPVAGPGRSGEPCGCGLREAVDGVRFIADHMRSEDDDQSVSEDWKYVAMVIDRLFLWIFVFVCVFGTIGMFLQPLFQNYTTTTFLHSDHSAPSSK", "conditions": "inhibits the function of α4β2 nAChRs; cited from earlier work"}, "[6]": {"target": "α3β4 nAChRs (Homo sapiens, UniProt P30926+P32297)", "sequence (P32297 32-505)": "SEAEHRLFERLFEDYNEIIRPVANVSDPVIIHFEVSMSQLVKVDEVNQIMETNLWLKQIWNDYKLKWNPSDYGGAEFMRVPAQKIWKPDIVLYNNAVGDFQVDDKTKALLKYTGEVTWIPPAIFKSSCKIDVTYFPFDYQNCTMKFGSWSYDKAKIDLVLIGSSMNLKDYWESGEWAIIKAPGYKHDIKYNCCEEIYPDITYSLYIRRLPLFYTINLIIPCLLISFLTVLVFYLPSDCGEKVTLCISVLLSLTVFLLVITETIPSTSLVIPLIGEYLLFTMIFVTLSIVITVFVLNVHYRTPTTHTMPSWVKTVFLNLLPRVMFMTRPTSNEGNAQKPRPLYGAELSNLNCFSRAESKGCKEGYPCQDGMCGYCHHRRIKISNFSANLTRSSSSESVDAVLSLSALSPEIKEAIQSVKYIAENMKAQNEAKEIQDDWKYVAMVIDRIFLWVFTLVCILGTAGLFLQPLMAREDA", "sequence (P30926 22-498)": "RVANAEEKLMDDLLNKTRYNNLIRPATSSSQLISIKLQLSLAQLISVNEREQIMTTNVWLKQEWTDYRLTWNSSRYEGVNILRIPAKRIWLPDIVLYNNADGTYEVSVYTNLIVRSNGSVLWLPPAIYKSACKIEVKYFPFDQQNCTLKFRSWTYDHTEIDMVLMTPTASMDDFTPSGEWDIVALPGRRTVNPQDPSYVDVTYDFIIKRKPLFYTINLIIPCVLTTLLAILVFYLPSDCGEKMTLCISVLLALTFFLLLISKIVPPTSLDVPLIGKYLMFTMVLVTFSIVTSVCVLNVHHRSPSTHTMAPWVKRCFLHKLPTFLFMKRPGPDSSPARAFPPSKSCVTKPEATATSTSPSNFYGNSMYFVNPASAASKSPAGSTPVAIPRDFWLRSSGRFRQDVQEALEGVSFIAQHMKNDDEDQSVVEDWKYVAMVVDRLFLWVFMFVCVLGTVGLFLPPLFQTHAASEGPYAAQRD", "conditions": "inhibits the function of α3β4 nAChRs; cited from earlier work"}, "[7]": {"target": "α7 (Homo sapiens, UniProt P36544)", "sequence (P36544 23-502)": "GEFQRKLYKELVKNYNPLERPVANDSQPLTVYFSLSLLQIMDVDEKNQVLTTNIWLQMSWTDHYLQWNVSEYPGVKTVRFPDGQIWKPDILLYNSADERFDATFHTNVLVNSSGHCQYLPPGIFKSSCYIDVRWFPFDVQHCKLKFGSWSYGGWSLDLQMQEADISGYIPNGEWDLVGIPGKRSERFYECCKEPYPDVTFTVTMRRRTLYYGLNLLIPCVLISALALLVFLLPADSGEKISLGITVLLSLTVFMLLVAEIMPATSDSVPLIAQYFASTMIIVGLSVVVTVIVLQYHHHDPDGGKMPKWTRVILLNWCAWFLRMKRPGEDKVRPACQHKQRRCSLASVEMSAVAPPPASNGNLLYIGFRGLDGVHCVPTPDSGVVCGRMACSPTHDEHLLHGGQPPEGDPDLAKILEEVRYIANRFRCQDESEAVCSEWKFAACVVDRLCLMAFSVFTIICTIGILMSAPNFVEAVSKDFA", "conditions": "cited from earlier work"}, "[8]": {"target": "α3β4 (Homo sapiens, UniProt P30926+P32297)", "sequence (P32297 32-505)": "as the sequence (P32297 32-505) above", "sequence (P30926 22-498)": "as the sequence (P30926 22-498) above", "conditions": "cited from earlier work"}, "[9]": {"system": "Akt Ser473", "assay": "Western blot of phosphorylated Akt in CA1 of hippocampal slices", "format": "cell-based, rat", "conditions": "1 μM DHβE alone, 20 min", "quoted_text": "For immunoassays of phosphorylated proteins, in the initial experiments slices were incubated in the same conditions as for PS determination. Later, the slices were incubated by being submerged in a static chamber on culture insets (Millicell; Millipore, Billerica, Mass.) to avoid drying during timed removal of slices.\nSlices were prepared and maintained as described above. Treatments started after 2 hr of incubation in ACSF. […] At the corresponding time, each slice was removed and the CA1 region microdissected, frozen on dry ice, and stored at −80° C. until assayed. […] Final detection was carried out with enhance chemiluminescence methodology (Pierce Supersignal West Dura) and the intensity of the signal measured in a gel documentation system (Versa Doc Model 1000; Bio-Rad). […] Normalization of the signal of the phosphokinase to the total amount of proteins, measured by densitometry of the stained membrane, was used as the relevant parameter, which was the level of activity of the kinase. This method was validated with several isolated cells and tissues and determined a linear relationship between the amount of total protein (as measured by densitometry) and total kinases (as measured by chemiluminescence) within the range of proteins employed in these experiments (4-12 μg total protein). […]"}},
  "data": [
    {"smiles": "CC12CC3CC(C)(C1)CC(N)(C3)C2", "note": "[Memantine, memantine]", "values": [
      {"measurement": "IC50", "setting": "[1]", "value": 5.1, "unit": "µM"},
      {"measurement": "effect of DHβE on the neuroprotection", "setting": "[2]; 1 μM DHβE, 2 μM 4R", "value": "inhibited"},
      {"measurement": "effect of nifedipine on the neuroprotection", "setting": "[2]", "value": "blocked"},
      {"measurement": "effect of PD98059 on the neuroprotection", "setting": "[2]; 2 μM 4R, 1 μM nicotine", "value": "not inhibited"},
      {"measurement": "shape of the dose-response curve for neuroprotection", "setting": "[2]; FIGS. 20A-B", "value": "bell-shaped"},
      {"measurement": "concentrations of dose-dependent neuroprotection", "setting": "[2]; effect decreases at higher concentrations", "value": "below 3 μM"},
      {"measurement": "effect of inhibitors of PI3-kinase on the neuroprotection", "setting": "[2]; inhibitors of PI3-kinase", "value": "blocked"},
      {"measurement": "Effect on the neuroprotection caused by the substance: 10 μM PD98059", "setting": "[2]", "value": 0},
      {"measurement": "Effect on the neuroprotection caused by the substance: 0.1 μM Ro31 -8220", "setting": "[2]; main target PKC", "value": 0},
      {"measurement": "effect of vesamicol on the neuroprotection", "setting": "[2]; vesamicol", "value": "blocked"},
      {"measurement": "IC50", "setting": "[3]", "value": 0.34, "unit": "µM"}
    ]},
    {"smiles": "Cn1cc(C2=C(c3ccc(Cl)cc3Cl)C(=O)NC2=O)c2ccccc21", "note": "[SB 216763]", "values": [
      {"measurement": "neuroprotection", "setting": "[2]; 100 μM applied 1 hr before or after 0.5 mM NMDA, n=21", "value": "neuroprotective only when applied after NMDA"}
    ]},
    {"smiles": "CCN1C[C@]2(COC(=O)c3ccccc3N3C(=O)C[C@H](C)C3=O)CC[C@H](OC)[C@@]34[C@@H]5C[C@H]6[C@H](OC)[C@@H]5[C@](O)(C[C@@H]6OC)[C@@](O)([C@@H](OC)[C@H]23)[C@@H]14", "note": "[MLA, methyllycaconitine]", "values": [
      {"measurement": "effect of DHβE on the neuroprotection (reported)", "setting": "[4]", "value": "blocked"},
      {"measurement": "neuroprotection (reported)", "setting": "[4]; literature report", "value": "neuroprotective"},
      {"measurement": "Effect on the neuroprotection caused by the substance: 10 μM PD98059", "setting": "[2]", "value": 0}
    ]},
    {"smiles": "CC1=CC(O)CC(C)(O)C=CC(C(C)C)CCC(C)=CCC1", "note": "[4R, (1S,2E,4R,6R,7E,11E)-cembra-2,7,11-triene-4,6-diol]", "values": [
      {"measurement": "IC50", "setting": "[5]", "value": 19.1, "unit": "µM"},
      {"measurement": "IC50", "setting": "[6]", "value": 2.2, "unit": "µM"}
    ]},
    {"smiles": "CO[C@H]1CC=C2CCN3CCC4=C(CC(=O)OC4)[C@]23C1", "note": "[DHβE, Dihydro-Beta-erithroidine]", "values": [
      {"measurement": "Ki", "setting": "[7]", "value": "25 to 57", "unit": "µM"},
      {"measurement": "Ki", "setting": "[8]", "value": 218, "unit": "µM"},
      {"measurement": "Akt phosphorylation", "setting": "[9]", "value": "did not affect"}
    ]},
    {"smiles": "CN1CCCC1c1cccnc1", "note": "(stereo not drawn) [Nicotine, nicotine]", "values": [
      {"measurement": "effect of DHβE on the neuroprotection (reported)", "setting": "[4]", "value": "blocked"},
      {"measurement": "effect of Ro-31-8220 on the neuroprotection", "setting": "[2]; 100 nM Ro-31-8220, 2 μM 4R, 1 μM nicotine", "value": "did inhibit"},
      {"measurement": "effect of APV on the neuroprotection", "setting": "[2]; 0.4 μM APV, 2:M 4R or 1:M nicotine", "value": "only a nonsignificant decrement"},
      {"measurement": "effect of KT5720 on the neuroprotection", "setting": "[2]; 0.5 μM KT5720, 2 μM 4R, 1 μM nicotine", "value": "partially decreased"},
      {"measurement": "recovery", "setting": "[2]; 1 μM during 1 hr followed by 0.5 mM NMDA", "value": "more than 80%"},
      {"measurement": "effect of KN-62 on the neuroprotection", "setting": "[2]; 9 μM KN-62", "value": "did not prevent a significant neuroprotection"},
      {"measurement": "effect of nifedipine on the neuroprotection", "setting": "[2]", "value": "did not inhibit"},
      {"measurement": "effect of DNQX on the neuroprotection", "setting": "[2]; 50 μM DNQX, 2 μM 4R, 1 μM nicotine", "value": "recovered significantly more activity"},
      {"measurement": "effect of PD98059 on the neuroprotection", "setting": "[2]; 2 μM 4R, 1 μM nicotine", "value": "annulled"},
      {"measurement": "Effect on the neuroprotection caused by the substance: 9 μMKN-62", "setting": "[2]; main target CaM kinases", "value": 0},
      {"measurement": "Effect on the neuroprotection caused by the substance: 10 μM Nifedipine", "setting": "[2]; main target L-type VGCC", "value": 0},
      {"measurement": "Effect on the neuroprotection caused by the substance: 4 μMAPV", "setting": "[2]; main target NMDA receptors", "value": 0},
      {"measurement": "Effect on the neuroprotection caused by the substance: 50 μM Vesarnicol", "setting": "[2]; main target Synaptic ACh release", "value": 0}
    ]}
  ]
}
